One assay addresses T1, Protein RecA (Mycobacterium tuberculosis, UniProt P9WHJ3).
T1 sequence (P9WHJ3 whole entry): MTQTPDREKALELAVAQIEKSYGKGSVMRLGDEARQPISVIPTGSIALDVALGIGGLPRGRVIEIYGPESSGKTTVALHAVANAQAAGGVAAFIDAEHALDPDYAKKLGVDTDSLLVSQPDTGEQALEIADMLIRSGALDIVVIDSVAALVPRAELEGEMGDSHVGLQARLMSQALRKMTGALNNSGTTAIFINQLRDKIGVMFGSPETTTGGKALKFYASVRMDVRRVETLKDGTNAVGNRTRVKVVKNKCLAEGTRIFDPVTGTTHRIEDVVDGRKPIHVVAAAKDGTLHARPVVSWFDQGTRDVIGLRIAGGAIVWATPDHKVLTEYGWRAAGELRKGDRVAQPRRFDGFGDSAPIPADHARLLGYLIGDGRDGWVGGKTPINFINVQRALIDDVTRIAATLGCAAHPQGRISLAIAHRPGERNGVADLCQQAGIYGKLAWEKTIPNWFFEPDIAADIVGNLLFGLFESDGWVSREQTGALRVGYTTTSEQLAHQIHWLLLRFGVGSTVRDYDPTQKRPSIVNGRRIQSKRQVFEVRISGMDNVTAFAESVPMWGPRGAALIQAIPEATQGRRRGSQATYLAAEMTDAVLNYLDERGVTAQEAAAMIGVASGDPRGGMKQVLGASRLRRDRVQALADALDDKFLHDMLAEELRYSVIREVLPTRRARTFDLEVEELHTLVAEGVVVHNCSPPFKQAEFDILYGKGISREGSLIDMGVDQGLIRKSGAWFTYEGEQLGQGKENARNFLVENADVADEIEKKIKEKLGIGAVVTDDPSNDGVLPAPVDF
In words: Fluorescence Cell-Free Homogeneous Dose Retest to Identify Inhibitors of RecA-Intein Splicing Activity. [Related pubchem assays (depositor defined):AID2097, AID2223, AID489010, AID492950]. Format: functional.

Assay [1] addresses T2, Protein disulfide-isomerase (Homo sapiens, UniProt P07237). Description: PDI inhibitors, insulin aggregation turbidity, dose response, biochemical, absorbance, cherry-picked samples (AID 602350). The assay is classed as functional.
Assay [2] is described as follows: Luminescence Cell-Based Dose Response HTS to Identify Inhibitors of 5'UTR Stem-Loop Driven Prion Protein mRNA Translation in H4 Neuroglioblastoma Cells. [Related pubchem assays: 1827 (Project Summary), 1813 (Primary HTS)]. The assay is classed as functional.
The target of assay [3] is T3, Replicative DNA helicase DnaB (Mycobacterium tuberculosis, UniProt P9WMR3).
T3 sequence (P9WMR3 whole entry): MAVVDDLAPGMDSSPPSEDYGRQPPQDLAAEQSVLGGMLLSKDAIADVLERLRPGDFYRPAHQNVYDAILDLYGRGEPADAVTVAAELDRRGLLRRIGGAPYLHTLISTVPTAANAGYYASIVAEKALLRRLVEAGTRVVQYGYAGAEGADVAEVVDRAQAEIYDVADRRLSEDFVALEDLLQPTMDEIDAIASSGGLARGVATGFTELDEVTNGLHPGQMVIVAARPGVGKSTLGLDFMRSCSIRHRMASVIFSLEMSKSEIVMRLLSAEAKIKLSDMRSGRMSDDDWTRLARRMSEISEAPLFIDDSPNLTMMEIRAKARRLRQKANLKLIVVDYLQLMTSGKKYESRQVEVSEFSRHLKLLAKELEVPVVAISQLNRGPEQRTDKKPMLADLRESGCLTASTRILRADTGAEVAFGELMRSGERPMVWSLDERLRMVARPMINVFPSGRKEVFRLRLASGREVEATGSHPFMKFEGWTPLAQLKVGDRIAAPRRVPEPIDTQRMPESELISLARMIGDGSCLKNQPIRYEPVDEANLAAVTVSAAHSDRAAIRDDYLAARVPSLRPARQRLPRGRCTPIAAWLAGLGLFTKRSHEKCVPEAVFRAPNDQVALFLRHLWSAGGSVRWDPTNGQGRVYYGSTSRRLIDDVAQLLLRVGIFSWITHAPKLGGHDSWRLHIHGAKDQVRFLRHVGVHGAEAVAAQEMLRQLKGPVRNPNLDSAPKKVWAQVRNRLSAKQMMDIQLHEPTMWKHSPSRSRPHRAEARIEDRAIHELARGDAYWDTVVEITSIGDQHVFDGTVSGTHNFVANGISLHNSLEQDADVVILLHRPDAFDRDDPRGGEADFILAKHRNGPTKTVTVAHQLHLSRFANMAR
In words: DnaB intein splicing inhibitors, dose response, biochemical, cell-free fluorescence (AID 449749). The assay is classed as functional.

Assay [4] deals with Protein disulfide-isomerase A6 (Homo sapiens, UniProt Q15084). In words: Secondary Assay for Selectivity of PDI Inhibitors (against ERp5) Measured in Biochemical System Using Plate Reader - 2137-04_Inhibitor_Dose_DryPowder_Activity_Set3.
Assay [5] can be described thus: inhibitors of firefly luciferase expression or activity, dose response, H4 neuroglioma cells, luminescence (AID 1990). The assay is classed as functional, cell-based.
A short description of assay [6]: HEK293 cell cytotoxicity, dose response, cytotoxicity control, HEK293T, ATP luminescence, dry powder (AID 652119). The assay is classed as functional, cell-based.
A short description of assay [7]: inhibitors of SNCA 5'UTR-driven reporter translation, confirmation, H4 neuroglioma cells, luminescence (AID 1988). Format: functional, cell-based.
Assay [8] deals with T2, Protein disulfide-isomerase. Description: PDI inhibitors, insulin turbidity readout, confirmation, biochemical, dry powder samples, set 2 (AID 652146).
Another assay deals with Aurora kinase A (Homo sapiens, UniProt O14965). The assay is classed as functional.
A further assay concerns the target Aurora kinase B (Homo sapiens, UniProt Q96GD4). Format: functional.
The target of assay [9] is ALK tyrosine kinase receptor (Homo sapiens, UniProt Q9UM73). The assay is classed as functional.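 Note: ALK tested as one member of a kinase panel screen.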
The next assay deals with Focal adhesion kinase 1 (Homo sapiens, UniProt Q05397). Format: functional.

The term EC50 denotes the concentration giving half of the maximal effect. What is called AC50 is the concentration at which the activity in the assay is half-maximal. A word on the Ki: it is the dissociation constant of the complex between target and ligand, obtained from inhibition or displacement.

Each structure is given as a SMILES string. Activity calls are given as the source filed them.

T2 sequence (P07237 whole entry): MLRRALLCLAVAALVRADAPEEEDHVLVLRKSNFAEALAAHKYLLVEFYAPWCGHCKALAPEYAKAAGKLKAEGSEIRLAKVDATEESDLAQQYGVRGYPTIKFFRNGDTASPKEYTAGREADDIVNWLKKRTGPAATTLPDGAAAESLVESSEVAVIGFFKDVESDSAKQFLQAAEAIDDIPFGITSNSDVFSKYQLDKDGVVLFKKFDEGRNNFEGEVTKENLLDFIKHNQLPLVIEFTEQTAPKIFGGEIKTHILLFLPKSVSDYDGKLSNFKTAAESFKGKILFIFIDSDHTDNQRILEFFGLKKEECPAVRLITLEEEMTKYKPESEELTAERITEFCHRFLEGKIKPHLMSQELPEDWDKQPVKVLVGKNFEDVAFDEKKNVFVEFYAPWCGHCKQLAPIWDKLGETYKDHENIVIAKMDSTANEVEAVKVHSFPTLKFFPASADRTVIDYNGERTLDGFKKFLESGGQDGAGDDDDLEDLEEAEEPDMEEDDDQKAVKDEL
Chain of Focal adhesion kinase 1 (Q05397 whole entry): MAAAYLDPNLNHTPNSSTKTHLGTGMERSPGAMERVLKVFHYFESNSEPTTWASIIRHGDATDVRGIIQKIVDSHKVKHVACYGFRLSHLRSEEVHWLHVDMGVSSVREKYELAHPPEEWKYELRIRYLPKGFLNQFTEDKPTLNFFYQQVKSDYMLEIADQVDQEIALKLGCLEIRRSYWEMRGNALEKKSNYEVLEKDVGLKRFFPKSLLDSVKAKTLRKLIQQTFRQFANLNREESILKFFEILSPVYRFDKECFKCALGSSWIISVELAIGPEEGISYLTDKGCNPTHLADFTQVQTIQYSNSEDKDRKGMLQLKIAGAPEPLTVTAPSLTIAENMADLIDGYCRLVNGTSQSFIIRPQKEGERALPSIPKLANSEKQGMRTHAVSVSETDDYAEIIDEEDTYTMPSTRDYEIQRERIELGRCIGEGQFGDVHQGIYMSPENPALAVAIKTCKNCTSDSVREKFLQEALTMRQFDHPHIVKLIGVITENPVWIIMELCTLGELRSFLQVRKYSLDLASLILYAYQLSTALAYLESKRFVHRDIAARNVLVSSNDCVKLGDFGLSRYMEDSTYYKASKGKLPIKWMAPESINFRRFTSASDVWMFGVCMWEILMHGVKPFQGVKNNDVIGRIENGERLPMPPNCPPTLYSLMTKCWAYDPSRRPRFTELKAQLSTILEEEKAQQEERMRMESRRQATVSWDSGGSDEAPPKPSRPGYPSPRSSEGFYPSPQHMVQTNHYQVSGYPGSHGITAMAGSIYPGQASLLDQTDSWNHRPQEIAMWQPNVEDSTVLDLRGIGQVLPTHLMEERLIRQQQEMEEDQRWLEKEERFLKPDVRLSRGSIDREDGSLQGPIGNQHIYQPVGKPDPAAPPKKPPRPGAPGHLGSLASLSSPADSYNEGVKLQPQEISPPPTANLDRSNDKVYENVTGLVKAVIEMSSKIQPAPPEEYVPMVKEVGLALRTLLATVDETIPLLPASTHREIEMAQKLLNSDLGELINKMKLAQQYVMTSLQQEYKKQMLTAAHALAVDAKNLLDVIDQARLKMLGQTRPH
Chain of Aurora kinase A (O14965 whole entry): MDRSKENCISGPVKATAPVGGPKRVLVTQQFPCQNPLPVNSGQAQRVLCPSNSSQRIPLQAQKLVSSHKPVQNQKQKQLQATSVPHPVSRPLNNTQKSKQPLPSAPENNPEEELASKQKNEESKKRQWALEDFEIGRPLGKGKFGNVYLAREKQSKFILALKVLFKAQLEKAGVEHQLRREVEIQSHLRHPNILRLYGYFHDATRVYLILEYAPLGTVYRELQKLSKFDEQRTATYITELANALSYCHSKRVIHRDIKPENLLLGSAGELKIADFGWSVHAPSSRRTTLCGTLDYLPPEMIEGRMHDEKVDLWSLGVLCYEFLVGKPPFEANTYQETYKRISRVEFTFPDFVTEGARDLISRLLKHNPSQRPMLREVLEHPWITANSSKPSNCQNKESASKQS
Chain of Protein disulfide-isomerase A6 (Q15084 whole entry): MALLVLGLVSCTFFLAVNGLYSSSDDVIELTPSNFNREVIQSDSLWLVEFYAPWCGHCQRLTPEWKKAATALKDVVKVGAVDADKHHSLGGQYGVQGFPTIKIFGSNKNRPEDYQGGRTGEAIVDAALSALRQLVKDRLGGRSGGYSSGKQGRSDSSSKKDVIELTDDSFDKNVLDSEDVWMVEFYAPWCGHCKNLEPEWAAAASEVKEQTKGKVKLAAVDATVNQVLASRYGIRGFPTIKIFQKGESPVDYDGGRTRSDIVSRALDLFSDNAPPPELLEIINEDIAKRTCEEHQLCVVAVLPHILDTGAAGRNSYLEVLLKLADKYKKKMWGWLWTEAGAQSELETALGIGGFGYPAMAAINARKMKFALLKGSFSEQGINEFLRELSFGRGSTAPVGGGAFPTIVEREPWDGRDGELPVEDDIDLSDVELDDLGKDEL
Chain of Aurora kinase B (Q96GD4 whole entry): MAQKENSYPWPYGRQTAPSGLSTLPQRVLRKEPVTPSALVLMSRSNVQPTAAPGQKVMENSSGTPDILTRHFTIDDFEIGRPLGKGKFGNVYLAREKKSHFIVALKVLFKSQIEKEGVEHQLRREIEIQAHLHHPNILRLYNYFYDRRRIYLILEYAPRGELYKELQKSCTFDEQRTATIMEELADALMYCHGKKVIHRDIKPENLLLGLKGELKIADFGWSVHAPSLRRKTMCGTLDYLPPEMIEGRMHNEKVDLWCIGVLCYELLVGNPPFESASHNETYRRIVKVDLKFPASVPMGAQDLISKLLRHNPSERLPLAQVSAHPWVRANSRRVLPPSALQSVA
Chain of ALK tyrosine kinase receptor (Q9UM73 whole entry): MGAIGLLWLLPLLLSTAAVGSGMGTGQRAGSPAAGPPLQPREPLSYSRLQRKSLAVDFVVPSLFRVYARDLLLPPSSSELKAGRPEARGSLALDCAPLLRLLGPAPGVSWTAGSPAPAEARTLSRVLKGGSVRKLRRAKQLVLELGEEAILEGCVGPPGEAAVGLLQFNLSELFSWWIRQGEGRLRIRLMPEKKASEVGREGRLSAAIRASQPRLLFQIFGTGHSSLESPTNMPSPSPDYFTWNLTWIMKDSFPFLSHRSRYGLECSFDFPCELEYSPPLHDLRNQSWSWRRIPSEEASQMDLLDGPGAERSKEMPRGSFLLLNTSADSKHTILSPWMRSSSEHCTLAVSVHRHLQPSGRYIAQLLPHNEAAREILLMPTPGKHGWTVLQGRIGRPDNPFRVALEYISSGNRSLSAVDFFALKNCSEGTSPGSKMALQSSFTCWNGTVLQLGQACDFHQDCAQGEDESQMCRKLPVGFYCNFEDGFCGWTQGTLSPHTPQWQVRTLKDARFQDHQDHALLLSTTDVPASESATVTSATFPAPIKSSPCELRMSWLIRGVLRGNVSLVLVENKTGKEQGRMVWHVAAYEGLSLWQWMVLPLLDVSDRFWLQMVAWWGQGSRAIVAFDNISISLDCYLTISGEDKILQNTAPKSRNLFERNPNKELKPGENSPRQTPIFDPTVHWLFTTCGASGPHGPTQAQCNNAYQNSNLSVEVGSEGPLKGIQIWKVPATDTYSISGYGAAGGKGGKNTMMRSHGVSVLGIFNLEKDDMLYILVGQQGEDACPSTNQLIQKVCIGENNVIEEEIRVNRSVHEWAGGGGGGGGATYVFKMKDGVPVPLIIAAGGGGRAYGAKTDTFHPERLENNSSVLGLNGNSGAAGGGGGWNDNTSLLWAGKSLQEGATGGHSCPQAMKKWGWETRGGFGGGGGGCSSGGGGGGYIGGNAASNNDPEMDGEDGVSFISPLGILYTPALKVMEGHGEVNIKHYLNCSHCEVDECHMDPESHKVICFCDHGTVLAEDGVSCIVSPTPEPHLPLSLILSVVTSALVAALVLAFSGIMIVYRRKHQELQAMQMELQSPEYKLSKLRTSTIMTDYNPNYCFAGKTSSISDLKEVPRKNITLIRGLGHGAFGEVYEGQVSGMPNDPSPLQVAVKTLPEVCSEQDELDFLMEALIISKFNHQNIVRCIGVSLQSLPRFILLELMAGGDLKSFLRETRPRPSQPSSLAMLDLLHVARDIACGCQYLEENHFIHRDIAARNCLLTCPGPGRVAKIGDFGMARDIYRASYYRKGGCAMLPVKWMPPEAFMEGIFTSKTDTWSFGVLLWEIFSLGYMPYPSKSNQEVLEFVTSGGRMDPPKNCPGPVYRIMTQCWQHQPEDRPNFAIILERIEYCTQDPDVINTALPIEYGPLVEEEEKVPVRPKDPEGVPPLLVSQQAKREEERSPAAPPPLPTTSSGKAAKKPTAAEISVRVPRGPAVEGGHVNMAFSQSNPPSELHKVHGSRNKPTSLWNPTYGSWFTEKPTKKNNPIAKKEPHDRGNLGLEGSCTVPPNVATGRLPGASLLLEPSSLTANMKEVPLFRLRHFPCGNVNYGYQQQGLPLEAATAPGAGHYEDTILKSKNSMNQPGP

Consider `CCOC(=O)C1(CCOc2ccccc2)CCN(Cc2ccc(O)c(Cl)c2)CC1`, for which the EC50 was > 380 µM (inactive) at Protein RecA, > 120 µM (not active) in assay [2], > 120 µM (not active) in assay [5] and > 120 µM (not active) in [7]. For the same compound, the AC50 was 0.599 µM (active) in [1]; 99.6 µM (active) in assay [3]; 30 µM (inactive) in assay [4]; > 52 µM (inactive) in assay [6]; 2 µM (active) in assay [8].

Take `Cc1cc(N2CCOCC2)cc2[nH]c(-c3c(NCCc4ccccc4)cc[nH]c3=O)nc12`: the Ki was 0.794 µM (active) at Aurora kinase A, 0.1 µM (active) on Aurora kinase B, 0.126 µM (active) in [9] and > 1.58 µM (inactive) on Focal adhesion kinase 1.

These data come from ChEMBL document CHEMBL1201862, “PubChem BioAssay data set” (2004).
